Data set [1] concerns the target T1, MAO A (Mus musculus, UniProt Q64133).
T1 construct: from tissue; host or cells: whole mouse brain homogenate
T1 sequence (Q64133 1-526): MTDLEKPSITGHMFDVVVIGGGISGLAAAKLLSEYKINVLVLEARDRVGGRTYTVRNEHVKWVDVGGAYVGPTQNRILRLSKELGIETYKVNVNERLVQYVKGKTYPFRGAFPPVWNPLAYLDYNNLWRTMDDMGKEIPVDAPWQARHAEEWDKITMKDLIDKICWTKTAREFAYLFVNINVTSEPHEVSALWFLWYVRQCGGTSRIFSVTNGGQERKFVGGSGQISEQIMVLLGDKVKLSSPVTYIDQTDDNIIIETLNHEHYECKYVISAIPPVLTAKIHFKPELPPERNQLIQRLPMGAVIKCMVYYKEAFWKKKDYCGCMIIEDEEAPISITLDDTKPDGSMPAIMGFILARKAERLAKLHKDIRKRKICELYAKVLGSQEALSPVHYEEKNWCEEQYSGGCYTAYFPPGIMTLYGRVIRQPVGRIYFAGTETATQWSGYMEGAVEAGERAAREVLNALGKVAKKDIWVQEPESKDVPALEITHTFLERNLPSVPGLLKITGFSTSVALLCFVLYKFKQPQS
As to the kind of experiment: MAO A 18F-FEH competition assay in mouse brain homogenate. In kind it is binding. Details: Low affinity to MAO A (grade), mouse brain homogenate: key to the marks not given beside the values. The note with it: for IC50: 18F-FEH competition, fluorine-19 derivatives.

For data set [2], the target named is T2, MAO B (Homo sapiens, UniProt P27338).
T2 construct: 20 μg of human brain homogenate (without AD pathology); from tissue; host or cells: human brain homogenate without AD pathology
T2 sequence (P27338 1-520): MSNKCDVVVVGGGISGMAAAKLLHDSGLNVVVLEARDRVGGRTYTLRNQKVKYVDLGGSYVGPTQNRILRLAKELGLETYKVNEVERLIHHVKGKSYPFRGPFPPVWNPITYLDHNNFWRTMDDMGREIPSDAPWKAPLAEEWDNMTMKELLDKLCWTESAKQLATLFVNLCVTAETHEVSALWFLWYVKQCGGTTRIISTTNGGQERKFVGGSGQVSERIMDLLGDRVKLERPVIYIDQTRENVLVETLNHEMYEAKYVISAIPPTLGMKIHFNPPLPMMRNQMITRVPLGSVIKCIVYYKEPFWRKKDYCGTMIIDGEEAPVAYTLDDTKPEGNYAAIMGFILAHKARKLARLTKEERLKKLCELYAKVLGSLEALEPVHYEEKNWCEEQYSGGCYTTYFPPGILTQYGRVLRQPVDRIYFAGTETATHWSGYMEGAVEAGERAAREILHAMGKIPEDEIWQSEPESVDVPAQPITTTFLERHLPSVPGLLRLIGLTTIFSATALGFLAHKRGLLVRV
As to the kind of experiment: MAO B 18F-fluoro deprenyl competition assay in human HC brain homogenate. Details: Low affinity to MAO B (grade): key: −: poor; ∘: moderate; +: good; ++: very good; +++: excellent. In kind it is binding. The protocol:
The samples were shaken at 110 rpm for 45 min at 37° C. Samples were then filtered through GF/B 96 well filter plates and washed twice with 300 μL assay buffer (PBS containing 0.1% BSA and 2% DMSO). Thereafter, filter plates were sealed and a Fuji Film Imaging Plate (BAS-SR2025) was placed on top. The imaging plate was analyzed after overnight exposition using a Fuji Film BAS-5000. […] IC50 values were calculated by Prism V6 (GraphPad) setting total binding to 100%.

Data set [3] can be described thus: PK studies in healthy mice (dynamic PET). On Fast washout from healthy brain (grade): key: −: poor; ∘: moderate; +: good; ++: very good; +++: excellent. On Good brain uptake (grade): key: −: poor; ∘: moderate; +: good; ++: very good; +++: excellent. On Low or minor de-fluorination (grade): key: −: poor; ∘: moderate; +: good; ++: very good; +++: excellent. On Low retention in healthy brain (grade): key: −: poor; ∘: moderate; +: good; ++: very good; +++: excellent. Details: Good brain uptake (grade) / Mouse PK Uptake (grade): key: −: poor; ∘: moderate; +: good; ++: very good; +++: excellent. In kind it is in vivo, NMRI mice. The protocol: NMRI mice (weight range 25-35 g) were injected intravenously with the ^18F-labeled compounds. Up to 150 μL of 1×PBS solution with 10%-15% EtOH or dilution medium ([…]) containing the ^18F-labeled compound (2-10 MBq) were injected. Anesthesia with isoflurane was induced before injection of the tracer and maintained during the image acquisition period. PET scans were performed using a SIEMENS INVEON small animal PET/CT scanner (Siemens, Knoxville, Tenn.). PET acquisition was started immediately before the radioactive dose was injected into the animal through the tail vein. Images were generated as dynamic scans for 60 minutes.
The peak uptake in the brain was set to 100% and washout curves were generated to evaluate the clearance of the activity from the normal brain (FIG. 2).

In data set [4] the target is amyloid-beta (Homo sapiens, UniProt P05067). Description: Competition binding to amyloid-beta in AD brain homogenate. The note with it: for IC50: fluorine-19 derivatives. The protocol:
20 μg of human Alzheimer disease brain homogenate was incubated with a dilution series of each test compound (1000 to 0.06 nM) in the presence of 800 Bq of ^18F-labeled beta-amyloid binder. The samples were shaken at 110 rpm for 45 min at 37° C. Samples were then filtered through GF/B 96 well filter plates and washed twice with 300 μL assay buffer (PBS containing 0.1% BSA and 2% DMSO). Thereafter, filter plates were sealed and a Fuji Film Imaging Plate (BAS-SR2025) was placed on top. The imaging plate was analyzed after overnight exposition using a Fuji Film BAS-5000. Non-specific signal was determined with samples containing ^18F-labeled beta-amyloid binder in the presence of assay buffer without brain substrate and competitor. […] The unblocked ^18F-labeled beta-amyloid binder signal was defined as total binding. IC50 values were calculated by Prism V6 (GraphPad) setting total binding to 100%.

Marks after values point to notes of the source that are not given here.

Sequence of amyloid-beta (P05067 whole entry): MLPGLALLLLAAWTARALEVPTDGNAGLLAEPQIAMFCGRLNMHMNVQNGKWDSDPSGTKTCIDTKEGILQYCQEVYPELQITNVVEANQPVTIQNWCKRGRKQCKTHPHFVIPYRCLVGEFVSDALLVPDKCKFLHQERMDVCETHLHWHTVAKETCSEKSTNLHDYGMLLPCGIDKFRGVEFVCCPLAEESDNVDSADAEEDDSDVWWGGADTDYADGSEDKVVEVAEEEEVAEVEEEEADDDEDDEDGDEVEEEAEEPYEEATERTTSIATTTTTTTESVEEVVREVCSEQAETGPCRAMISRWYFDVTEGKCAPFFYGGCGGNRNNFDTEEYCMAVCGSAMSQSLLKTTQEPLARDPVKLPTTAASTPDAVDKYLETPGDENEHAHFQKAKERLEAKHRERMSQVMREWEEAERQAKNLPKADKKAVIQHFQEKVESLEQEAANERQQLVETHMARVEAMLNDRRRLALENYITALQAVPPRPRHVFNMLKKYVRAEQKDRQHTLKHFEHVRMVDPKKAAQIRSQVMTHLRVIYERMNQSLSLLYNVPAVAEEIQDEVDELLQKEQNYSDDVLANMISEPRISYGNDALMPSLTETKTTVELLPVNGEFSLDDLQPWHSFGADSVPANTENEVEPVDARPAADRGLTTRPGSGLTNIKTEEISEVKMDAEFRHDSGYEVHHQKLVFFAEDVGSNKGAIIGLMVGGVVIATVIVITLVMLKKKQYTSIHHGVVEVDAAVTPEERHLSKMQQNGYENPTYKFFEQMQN

Regarding `[18F]c1ncccc1-c1ccc2c(n1)[nH]c1ccncc12` [Compound ^18F-4], the IC50 (as a rule, the concentration that inhibits the measured activity by half) in data set [1] stood at 1300 nM. Moreover, in data set [1] (Table 1), the “Low affinity to MAO A (grade), mouse brain homogenate” value is “+++”. In addition, in data set [1] (whole mouse brain homogenate), the “fold higher MAO A IC50 than compound 18F-1” value is 59 fold and the “fold higher MAO A IC50 than compound 18F-2” value came out at 2.7 fold. In addition, the half-inhibitory concentration (IC50) in data set [2] is greater than 1000 nM. The “fold higher MAO B IC50 than compound 18F-1” value in data set [2] (HC brain homogenate) is greater than 5 fold. Moreover, the “Low affinity to MAO B (grade)” value in data set [2] (Table 1) is “+++”. In data set [3] (Table 1), the “Fast washout from healthy brain (grade)” value is reported as “+++”, the “Good brain uptake (grade)” value was “++”, the “Low or minor de-fluorination (grade)” value is “+++” and the “Low retention in healthy brain (grade)” value is recorded as “+++”. Moreover, in data set [3] (mice), the “fold faster washout from healthy brain than compound 18F-1” value came out at 3.2 fold, the “fold faster washout from healthy brain than compound 18F-2” value stood at 2.0 fold, the “fold less long-term retention in healthy brain than compound 18F-1” value is 4 fold and the “fold less long-term retention in healthy brain than compound 18F-2” value stood at 3 fold. In addition, in data set [3] (mouse, in vivo), the “De-fluorination in mice (in words)” value is on record as “No de-fluorination”. For the same compound, the “Low affinity to amyloid-beta (grade)” value in data set [4] (Table 1) is “+++^a)”. This compound also gave a half-maximal inhibitory concentration (IC50) in data set [4] greater than 1000 nM.
In data set [1], `Fc1ncccc1-c1ccc2c(n1)[nH]c1ccncc12` [Compound F-4] came in with an IC50 greater than 1000 nM. Also, the “low MAO A binding (grade)” value in data set [1] (Table 2, IC50 in mouse brain homogenate) is given as “+++”. The compound further gave an IC50 in data set [2] greater than 1000 nM. Besides, in data set [3] (Table 2), the “Mouse PK De-fluorination (grade)” value is “+++”, the “Mouse PK Uptake (grade)” value is on record as “++” and the “Mouse PK Washout (grade)” value is given as “++”. Moreover, in data set [3] (healthy mice, after iv injection), the “bone uptake in shoulder joint at 60 min (de-fluorination)” value was “(<0.5% ID/g) ^f”. Also, the “peak uptake in brain (tracer uptake in healthy mice after iv injection)” value in data set [3] (healthy mice, iv, PET) is reported as “(5.8% ID/g)”. Moreover, the “ratio of uptake peak/30 min (washout from healthy brain)” value in data set [3] (healthy mice, Table 1: ratio of uptake at 2 min and 30 min) is given as “(22)”. Also, the IC50 in data set [4] was greater than 1000 nM.
